Values quoted from earlier work, collected in EP0408384A1, “N,N'-dicarboxymethyl, N,N'-dicarbamoylmethyl diaminoalkane derivatives and their use in pharmaceutical compositions” (BRITISH TECHNOLOGY GROUP LIMITED, priority 1989, dated 1991).

System: daunorubicin toxicity
Settings: acute daunorubicin toxicity; literature report

| SMILES | protection against the lethal effects of daunorubicin |
| --- | --- |
| O=C1CN(CCN2CC(=O)N(CN3CCOCC3)C(=O)C2)CC(=O)N1CN1CCOCC1 [bimolane] | give protection |
| CC(CN1CC(=O)NC(=O)C1)N1CC(=O)NC(=O)C1 (centres unmarked) [compound having R = CH₃ and R′ = R˝ = H] | give protection |
